Consider 13 compounds from PMC9864808, “Exploring Mannosylpurines as Copper Chelators and Cholinesterase Inhibitors with Potential for Alzheimer’s Disease” (Pharmaceuticals, 2022).

SMILES strings stand for the structures. Several values for one entry are separate records, joined by “and”; a condition that tells them apart may be missing. Equal entries are not always repeated.

Data set [1] deals with eeAChE (electric eel acetylcholinesterase) (Electrophorus electricus, UniProt O42275). Briefly: biochemical. The note with it: for IC50: Ellman assay, means ± SD of three measurements; for inhibition at 20 µM: read-out: inhibition percentage eeAChE, at 20 μM. The protocol:
(§1) The in vitro inhibitory activities of novel purine nucleosides 5-10, 12, 13 and 15, and 16 were evaluated against both heterologous (electric eel eeAChE, horse eqBChE) and human (recombinant) cholinesterases isoforms, by applying the Ellmann colorimetric assay, with slight modifications. […] The test compounds were assayed for their inhibitory activity toward eeAChE (electric eel AChE) and eqBChE (horse serum BChE), respectively, following Ellman’s method with modifications. […] AChE inhibitory activity was determined similarly by using a solution of AChE (0.9 U/mL in 0.1 M pH 8.0 phosphate buffer, PB) and acetylthiocholine iodide (ATC, 0.05 mM in 0.1 M pH 8.0 phosphate buffer, PB) as substrate. The inhibition data are reported as means of IC50’s determined at least in three independent measurements.
In general terms: Ellman's reagent forms a yellow product with free thiols.

In data set [2] the target is T1, eqBChE (horse serum butyrylcholinesterase) (Equus caballus, UniProt P81908).
T1 construct: eqBChE (horse serum BChE); from tissue; host or cells: horse serum
Briefly: biochemical. The note with it: for IC50: horse serum BChE, means ± SD of three measurements; for inhibition at 20 µM: read-out: inhibition percentage eqBChE. The protocol:
as §1

The target in data set [3] is hAChE (recombinant human isoform) (Homo sapiens, UniProt P22303). Briefly: biochemical. The format is biochemical. The note with it: for IC50: recombinant human isoform, means ± SD of three measurements; for inhibition at 20 µM: read-out: inhibition percentage hAChE. The protocol: (§2) The in vitro inhibitory activities of novel purine nucleosides 5-10, 12, 13 and 15, and 16 were evaluated against both heterologous (electric eel eeAChE, horse eqBChE) and human (recombinant) cholinesterases isoforms, by applying the Ellmann colorimetric assay, with slight modifications.
(§3) The test compounds were assayed for their inhibitory activity toward eeAChE (electric eel AChE) and eqBChE (horse serum BChE), respectively, following Ellman’s method with modifications. […] AChE inhibitory activity was determined similarly by using a solution of AChE (0.9 U/mL in 0.1 M pH 8.0 phosphate buffer, PB) and acetylthiocholine iodide (ATC, 0.05 mM in 0.1 M pH 8.0 phosphate buffer, PB) as substrate. The inhibition data are reported as means of IC50’s determined at least in three independent measurements.

Data set [4] concerns the target hBChE (recombinant human isoform) (Homo sapiens, UniProt P06276). Nature of the data set: biochemical. The format is biochemical. The following applies: for IC50: recombinant human isoform, means ± SD of three measurements. The protocol:
as §2, §3

Data set [5] in a line: UV-Visible chelating study, copper. The note with it: ions Cu^2+, Zn^2+, Fe^2+, Al^3+ as chlorides, water/DMSO. The protocol:
(§4) The chelating activity of all purine nucleoside probes was evaluated by the UV-Visible method in order to determine compounds’ absorption spectra in the absence and in the presence of Cu^2+ at concentrations ranging from 1 μM to 10 μM. […] The resulting wavelength shift from λ = 280 to λ = 325 nm indicates a conformational rearrangement induced by interaction with Cu^2+.
(§5) UV-Visible spectroscopy offers the advantage of high sensitivity towards small changes that affect the electronic properties of ligand receptors, so absorption spectra of all reported compounds have been evaluated by recording UV-visible properties in subsequent conditions: 1.5 mL 1 × 10^−4M of the probe are added to 1.5 mL 2 × 10^−5M of each ion chloride salt’s solution (Copper Chloride (CuCl2), Zinc Chloride (ZnCl2), Iron (II) Chloride (FeCl2) and Aluminum Chloride (AlCl3)). A mixture of distilled water/DMSO 95:5 has been selected as a solvent for compounds 5–10 and 12. For compounds 14–16, the selected solvent was a mixture of distilled water/DMSO 90:10 due to poor water solubility. Furthermore, a titration assay of each compound has been carried out by adding increasing concentration of selected ion (final ion concentration = 1 µM, 2 µM, 3 µM, 5 µM, and 10 µM).

Data set [6] is described as follows: UV-Visible chelating study, aluminum. The note with it: UV-Visible absorption. The protocol: as §4, §5
The nature of data set [7]: UV-Visible chelating study, zinc. The following applies: UV-Visible absorption. On the procedure:
as §4, §5

Data set [8] in a line: UV-Visible chelating study, iron. The following applies: UV-Visible absorption. The protocol:
as §4, §5

The nature of data set [9]: Water solubility (qualitative remark). The format is physicochemical.
The subject of a further data set is serum BChE. The following applies: literature value determined for serum BChE; read-out: IC50 hBChE; cited from earlier work.
The test system of the next data set is brain AChE. The following applies: literature value determined for brain AChE; read-out: IC50 hAChE; cited from earlier work.
Setting [10] is: at 5 μM (lower water solubility), 5 µM.

Sequence of hAChE (recombinant human isoform) (P22303 32-614): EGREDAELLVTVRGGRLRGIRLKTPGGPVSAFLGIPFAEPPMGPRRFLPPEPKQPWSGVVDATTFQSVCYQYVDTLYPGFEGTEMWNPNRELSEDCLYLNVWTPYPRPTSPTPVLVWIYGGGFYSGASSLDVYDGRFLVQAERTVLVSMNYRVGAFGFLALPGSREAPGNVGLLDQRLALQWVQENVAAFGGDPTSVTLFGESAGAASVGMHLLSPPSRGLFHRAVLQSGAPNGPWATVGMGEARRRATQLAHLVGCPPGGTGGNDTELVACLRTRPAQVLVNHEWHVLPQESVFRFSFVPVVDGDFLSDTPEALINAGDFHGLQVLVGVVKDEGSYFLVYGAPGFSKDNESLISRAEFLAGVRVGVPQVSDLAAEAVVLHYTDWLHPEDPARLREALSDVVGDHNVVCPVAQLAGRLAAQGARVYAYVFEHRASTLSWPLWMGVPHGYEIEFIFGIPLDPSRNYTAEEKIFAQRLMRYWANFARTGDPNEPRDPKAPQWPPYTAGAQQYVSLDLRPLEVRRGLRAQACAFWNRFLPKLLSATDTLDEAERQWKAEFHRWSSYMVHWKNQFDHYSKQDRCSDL
Sequence of hBChE (recombinant human isoform) (P06276 29-602): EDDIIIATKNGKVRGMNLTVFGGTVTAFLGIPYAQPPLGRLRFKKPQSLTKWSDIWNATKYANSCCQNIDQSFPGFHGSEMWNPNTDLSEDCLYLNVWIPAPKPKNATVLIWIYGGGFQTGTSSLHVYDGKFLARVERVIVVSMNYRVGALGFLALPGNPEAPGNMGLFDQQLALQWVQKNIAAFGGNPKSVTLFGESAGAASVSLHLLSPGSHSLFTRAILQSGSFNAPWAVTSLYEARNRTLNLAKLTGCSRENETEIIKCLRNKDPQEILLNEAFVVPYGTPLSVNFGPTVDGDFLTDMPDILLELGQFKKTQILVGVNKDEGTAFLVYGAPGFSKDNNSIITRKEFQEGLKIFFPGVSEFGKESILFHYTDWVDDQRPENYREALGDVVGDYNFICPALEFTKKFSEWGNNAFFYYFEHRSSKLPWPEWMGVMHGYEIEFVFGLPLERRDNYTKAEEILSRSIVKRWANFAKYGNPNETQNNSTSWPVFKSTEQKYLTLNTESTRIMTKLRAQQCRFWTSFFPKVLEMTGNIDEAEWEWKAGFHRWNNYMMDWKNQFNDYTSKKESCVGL
T1 sequence (P81908 whole entry): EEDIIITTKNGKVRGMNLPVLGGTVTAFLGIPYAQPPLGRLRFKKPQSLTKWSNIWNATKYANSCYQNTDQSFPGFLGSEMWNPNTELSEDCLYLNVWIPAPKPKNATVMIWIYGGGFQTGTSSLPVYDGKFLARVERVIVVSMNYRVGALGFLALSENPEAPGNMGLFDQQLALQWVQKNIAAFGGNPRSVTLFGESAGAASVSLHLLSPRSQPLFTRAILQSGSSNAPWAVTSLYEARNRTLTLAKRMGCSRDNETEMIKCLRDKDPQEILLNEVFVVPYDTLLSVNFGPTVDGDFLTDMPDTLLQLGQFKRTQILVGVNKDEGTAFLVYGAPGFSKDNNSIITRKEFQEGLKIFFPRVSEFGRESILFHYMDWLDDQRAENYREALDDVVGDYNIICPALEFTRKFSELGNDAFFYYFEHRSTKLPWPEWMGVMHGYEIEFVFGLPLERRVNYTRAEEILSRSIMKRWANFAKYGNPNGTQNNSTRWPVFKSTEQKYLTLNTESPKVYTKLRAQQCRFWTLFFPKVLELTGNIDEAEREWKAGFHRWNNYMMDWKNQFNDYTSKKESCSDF
Sequence of eeAChE (electric eel acetylcholinesterase) (O42275 24-633): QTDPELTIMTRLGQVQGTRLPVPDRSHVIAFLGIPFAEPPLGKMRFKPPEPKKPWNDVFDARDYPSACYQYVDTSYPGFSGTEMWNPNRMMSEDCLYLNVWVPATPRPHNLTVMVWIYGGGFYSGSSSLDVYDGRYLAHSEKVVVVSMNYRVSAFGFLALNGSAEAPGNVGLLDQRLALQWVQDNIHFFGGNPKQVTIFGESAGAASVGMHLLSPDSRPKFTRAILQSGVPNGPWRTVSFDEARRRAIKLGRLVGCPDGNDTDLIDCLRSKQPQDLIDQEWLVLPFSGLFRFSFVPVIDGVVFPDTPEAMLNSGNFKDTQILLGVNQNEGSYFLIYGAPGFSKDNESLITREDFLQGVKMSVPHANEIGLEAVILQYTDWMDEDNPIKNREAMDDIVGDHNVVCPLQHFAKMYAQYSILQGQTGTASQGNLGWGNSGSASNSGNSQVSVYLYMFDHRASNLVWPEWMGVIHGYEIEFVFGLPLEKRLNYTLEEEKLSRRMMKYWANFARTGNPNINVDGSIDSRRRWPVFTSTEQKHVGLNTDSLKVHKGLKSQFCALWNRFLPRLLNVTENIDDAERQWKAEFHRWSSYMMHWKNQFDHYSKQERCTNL

Usually IC50 stands for the concentration needed to halve the response being measured. Take `Clc1ncnc2c1ncn2[C@H]1O[C@H](COCc2ccccc2)[C@@H](OCc2ccccc2)[C@H](OCc2ccccc2)[C@@H]1OCc1ccccc1` [Compound 1, 6-chloro-9-(2,3,4,6-tetra-O-benzyl-α-D-mannopyranosyl)purine, reference compound]: the IC50 came out at 2.4 ± 0.3 µM in data set [1] and 2.8 ± 0.3 µM in data set [2].

With `CC(=O)Nc1nc(Cl)c2c(ncn2[C@H]2O[C@H](COCc3ccccc3)[C@@H](OCc3ccccc3)[C@H](OCc3ccccc3)[C@@H]2OCc2ccccc2)n1` [Compound 2, reference compound], the IC50 in data set [1] worked out at 18.1 ± 4.8 µM; in [2], 0.05 ± 0.01 µM.

The inhibition is the share of the control response that was lost under treatment. For `O=C(Nc1ncnc2c1ncn2[C@H]1O[C@H](COCc2ccccc2)[C@@H](OCc2ccccc2)[C@H](OCc2ccccc2)[C@@H]1OCc1ccccc1)c1ccccc1` [Compound 5, 6-benzamido-9-(2,3,4,6-tetra-O-benzyl-α-D-mannopyranosyl)purine], in data set [1], the IC50 is greater than 20 µM and the inhibition at 20 µM was found to be 25%. Moreover, in data set [2], the inhibition at 20 µM was 11% and the IC50 was greater than 20 µM.

For `O=C(Nc1ncnc2c1ncn2[C@@H]1O[C@H](COCc2ccccc2)[C@@H](OCc2ccccc2)[C@H](OCc2ccccc2)[C@@H]1OCc1ccccc1)c1ccccc1` [Compound 6, 6-benzamido-9-(2,3,4,6-tetra-O-benzyl-β-D-mannopyranosyl)purine], the IC50 was 17 ± 0.75 µM in [3]; 4.6 µM and 4.58 µM in data set [4]; 10.6 ± 1.1 µM in data set [1]; 4.3 µM and 4.29 µM in data set [2].

Regarding `O=C(Nc1ncnc2ncn([C@H]3O[C@H](COCc4ccccc4)[C@@H](OCc4ccccc4)[C@H](OCc4ccccc4)[C@@H]3OCc3ccccc3)c12)c1ccccc1` [Compound 7, 6-benzamido-7-(2,3,4,6-tetra-O-benzyl-α-D-mannopyranosyl)purine], the IC50 in [1] is greater than 20 µM. In data set [2], the “eqBChE inhibition, result in words” value was “selective” and the IC50 is 10 ± 1.1 µM.

With `O=C(Nc1ncnc2ncn([C@@H]3O[C@H](COCc4ccccc4)[C@@H](OCc4ccccc4)[C@H](OCc4ccccc4)[C@@H]3OCc3ccccc3)c12)c1ccccc1` [Compound 8, 6-benzamido-7-(2,3,4,6-tetra-O-benzyl-β-D-mannopyranosyl)purine], the IC50 is 4.8 µM and 4.81 µM in data set [3]; 4.6 µM and 4.55 µM in data set [4]; 2.6 µM and 2.61 µM in [1]; 4.4 ± 1.3 µM in data set [2].

Take `C[C@H]1O[C@H](n2cnc3c(NC(=O)c4ccccc4)ncnc32)[C@@H](OCc2ccccc2)[C@@H](OCc2ccccc2)[C@@H]1OCc1ccccc1` [Compound 9, 6-benzamido-9-(6-deoxy-2,3,4-tri-O-benzyl-α-D-mannopyranosyl)purine]: in data set [3], the inhibition at 20 µM was determined as 25% and the IC50 is greater than 20 µM. In data set [4], the “hBChE inhibition, result in words” value is “selective inhibitor” and the IC50 was 15.4 ± 1.1 µM. In [1], the “eeAChE inhibition, result in words” value is on record as “selective inhibitor”; the 50% inhibitory concentration (IC50) is 4.7 µM and 4.69 µM. Further, in data set [2], the inhibition at 20 µM worked out at 28% and the IC50 is greater than 20 µM.

Turning to `C[C@H]1O[C@@H](n2cnc3c(NC(=O)c4ccccc4)ncnc32)[C@@H](OCc2ccccc2)[C@@H](OCc2ccccc2)[C@@H]1OCc1ccccc1` [Compound 10, 6-benzamido-9-(6-deoxy-2,3,4-tri-O-benzyl-β-D-mannopyranosyl)purine], the IC50 is 17.8 ± 2.2 µM in data set [3], 8.7 ± 1.35 µM in data set [4], 15 ± 2.1 µM in data set [1] and 11.7 ± 1.2 µM in [2]. Further, the “eqBChE inhibition, result in words” value in data set [2] is “moderate inhibition”.

For the compound `CC(=O)O[C@@H]1[C@@H](OC(C)=O)[C@H](C)O[C@@H](n2cnc3c(NC(=O)c4ccccc4)ncnc32)[C@@H]1OC(C)=O` [Compound 12, 6-benzamido-9-(6-deoxy-2,3,4-tri-O-acetyl-α-L-mannopyranosyl)purine], the “hAChE inhibition, result in words” value in [3] is on record as “not active”. Besides, the “hBChE inhibition, result in words” value in data set [4] was “not active”. Besides, in data set [5], the “chelating activity / metal selectivity, result in words” value (from here on “chelating activity / metal selectivity”) is “selective Cu^2+ chelating agents”. Besides, in data set [1], the “eeAChE inhibition, result in words” value is “not active”; the IC50 was greater than 20 µM; the inhibition at 20 µM worked out at 8%. Besides, in [2], the “eqBChE inhibition, result in words” value is recorded as “not active”; the inhibition at 20 µM came out at 5%; the IC50 was greater than 20 µM.

Take `C[C@@H]1O[C@@H](n2cnc3c(N(Cc4ccccc4)C(=O)c4ccccc4)ncnc32)[C@H](OCc2ccccc2)[C@H](OCc2ccccc2)[C@H]1OCc1ccccc1` [Compound 13, 6-benzamido-N-benzyl-9-(6-deoxy-2,3,4-tri-O-benzyl-α-L-mannopyranosyl)purine]: in [6], the “interaction with aluminum ion, result in words” value is reported as “did not show chelating activity”. Moreover, the “interaction with zinc ion, result in words” value in data set [7] is “did not show chelating activity”. The “hAChE inhibition, result in words” value in data set [3] is listed as “no activity”. Besides, the inhibition at 20 µM was 8% in data set [3]; 25% in [4] (at 20 μM, read-out: inhibition percentage hBChE); 6% in data set [1]. Further, the IC50 in [3] is greater than 20 µM; in data set [4] it was greater than 20 µM; in data set [1] it was greater than 20 µM; in data set [2] it was 5.1 µM and 5.12 µM. For the same compound, the “hBChE inhibition, result in words” value in data set [4] is listed as “no activity”. For the same compound, the “chelating activity / metal selectivity” value in data set [5] was “did not show chelating activity”. The “interaction with iron ion, result in words” value in data set [8] is given as “did not show chelating activity”. Besides, the “eqBChE inhibition, result in words” value in [2] is given as “selective”.

On to `C[C@@H]1O[C@@H](n2cnc3c(NC(=O)c4ccccc4)ncnc32)[C@H](OCc2ccccc2)[C@H](OCc2ccccc2)[C@H]1OCc1ccccc1` [Compound 15, 6-benzamido-9-(6-deoxy-2,3,4-tri-O-benzyl-α-L-mannopyranosyl)purine], for which the “interaction with aluminum ion, result in words” value in [6] is “no relevant interaction”. The “interaction with zinc ion, result in words” value in data set [7] is reported as “no relevant interaction”. Besides, in data set [3] (setting [10]), the “inhibition percentage hAChE” value is 28 ± 3%. Besides, the IC50 in [3], in data set [4], in data set [1] and in [2] was greater than 5 µM in each case. Further, in data set [5], the “chelating activity / metal selectivity” value is “selective copper chelator”. For the same compound, the “water solubility, in words” value in [9] was “dramatic reduction of aqueous solubility”. For the same compound, the “interaction with iron ion, result in words” value in [8] is recorded as “no relevant interaction”. Further, the inhibition at 5 µM in data set [1] (read-out: inhibition percentage eeAChE, at 5 μM (lower water solubility)) is no more than 50%.

Take `C[C@@H]1O[C@H](n2cnc3c(NC(=O)c4ccccc4)ncnc32)[C@H](OCc2ccccc2)[C@H](OCc2ccccc2)[C@H]1OCc1ccccc1` [Compound 16, 6-benzamido-9-(6-deoxy-2,3,4-tri-O-benzyl-β-L-mannopyranosyl)purine]: the IC50 in data set [3], in data set [4], in data set [1] and in data set [2] was greater than 5 µM in each case. In addition, in data set [4] (setting [10]), the “inhibition percentage hBChE” value amounted to 30 ± 7%. The inhibition at 5 µM in [4] (at 5 μM (lower water solubility), read-out: inhibition percentage hBChE) was less than 50%. Also, in data set [5], the “chelating activity / metal selectivity” value is “non-selective chelator”. In addition, the “water solubility, in words” value in data set [9] is “dramatic reduction of aqueous solubility”.

In the case of `COc1ccc2c3c1O[C@H]1C[C@@H](O)C=C[C@@]31CCN(C)C2` [Galantamine], the IC50 in the data set with serum BChE is 59.2 ± 1.7 µM; in the data set on brain AChE it was 5 ± 0.071 µM.
